Assay results reported in US20050261319A1, “Novel 2-amino-4-quinazolinones and 2-amino-4-oxoquinazolones as LXR nuclear receptor binding compounds with partial agonistic properties” (priority 2002, published 2005).
pEC50: −log10 of the molar value. One block for each compound: values may come before it.

Assays:
Gal4DBD-LXRa = target: T1, Gal4DBD-LXRa (Homo sapiens, UniProt Q13133); assay: pFR-luc reporter transactivation in CHO cells, Gal4DBD-LXRa; type: cell-based; settings: 16 h, 0.032 to 50 uM
T1 construct: expressed in transfected cells; host or cells: CHO
T1 sequence (Q13133 209-447 limits assumed): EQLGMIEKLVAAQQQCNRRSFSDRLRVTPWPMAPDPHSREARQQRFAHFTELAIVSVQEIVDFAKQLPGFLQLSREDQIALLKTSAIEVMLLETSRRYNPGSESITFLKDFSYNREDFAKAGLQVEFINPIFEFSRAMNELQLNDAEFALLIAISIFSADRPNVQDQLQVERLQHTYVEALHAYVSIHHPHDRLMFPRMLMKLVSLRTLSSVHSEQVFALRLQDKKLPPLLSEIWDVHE
Procedure: (§1) CHO cells (1×10^5 cells 96 well plate) were co-transfected (Lipofectamine 2000 GIBCO) with pFR-luc (Stratagene) as a reporter gene construct and pCMV-AD derivatives containing the LXRa or LXRb ligand binding domains, which were cloned via the gateway system (GIBCO) described in Example 1, in order to express Gal4DBD-LXRa or Gal4DBD-LXRb fusion proteins.
(§2) Cells were grown in DMEM containing 10% FCS at 37° C. in 5% humidified CO2 for 16 h in presence of 0.05% DMSO vehicle or 0.032 to 50 uM LN0000006500 in vehicle (as indicated in FIG. 9). Luciferase activity was determined from aliquots of extracts prepared from cells following standard luciferase assay kits and protocols from Promega.

THP-1 macrophages = assay: Cholesterol efflux from differentiated THP-1 macrophages; type: cell-based; settings: ApoA1, 10 uM, 24 h
Procedure: Methods: Cultures of the monocyte-macrophage cell line and the hepatocytes HepG2 are obtained from the American Type tissue Culture Collection, Rockville, Md. and were grown in RPMI 1640 medium supplemented with 10% fetal bovine serum, 10 mM HEPES, 2 mM pyruvate, 50 uM (3-Mercaptoethanol (THP-1) and Minimum essential medium (Eagle) with 2 mM L-glutamine and Earle's BSS supplemented with 10% fetal bovine serum, 2 mM glutamin, 0.1 mM non-essential amino acids, 1 mM sodium pyruvate (HepG2), respectively, at 37° C. in 5% CO2. THP-1 cells are differentiated into macrophages by addition of 100 nM Phorbol 12-Myristate 13-Acetate (PMA; Sigma P8139) and PMA included in the medium of all subsequent experiments to maintain differentiation. For cholesterol efflux measurements and triglyceride analysis cells are seeded in 6 well plates at 1.8×10^6 cells (THP-1) and 1×10^6 cells (HepG2) per well, respectively. CHOLESTEROL EFFLUX THP-1 cells are seeded in 6 well plates at 1×10^6 cells per well in RPMI 1640 medium containing 10% FCS and 100 nM TPA for 72 h. After washing with PBS cells are incubated 24 h with fresh in RPMI 1640 medium containing 10% FCS and 100 nM TPA. […] Medium is collected, centrifuged to remove cell debris and assayed for cholesterol using a commercial fluorometric kit (Molecular Probes A-12216). The remaining cellular proteins are lysed with 0.3 NNaOH and protein content measured with the Biorad Bradford reagent. THP-1 (1×10^6 cells per dish) cells were seeded in 6 well dishes in 3 ml modified RPMI 1640 medium (ATTC, Cat. […] After incubation for 24 hours, total cholesterol was determined from cell supernatant in each of the wells using an enzymatic assay with fluorescence read-out for the determination of cholesterol (Amplex Red Cholesterol Assay Kit (A-12213). The fluorescence readout per mg of total protein content as determined from cells that were present in the respective well are shown in FIGS. 9 or 11 as an example.

Gal4DBD-LXRb = target: T2, Gal4DBD-LXRb (Homo sapiens, UniProt P55055); assay: pFR-luc reporter transactivation in CHO cells, Gal4DBD-LXRb; type: cell-based; settings: 16 h, 0.032 to 50 uM
T2 construct: expressed in transfected cells; host or cells: CHO
T2 sequence (P55055 222-460 limits assumed): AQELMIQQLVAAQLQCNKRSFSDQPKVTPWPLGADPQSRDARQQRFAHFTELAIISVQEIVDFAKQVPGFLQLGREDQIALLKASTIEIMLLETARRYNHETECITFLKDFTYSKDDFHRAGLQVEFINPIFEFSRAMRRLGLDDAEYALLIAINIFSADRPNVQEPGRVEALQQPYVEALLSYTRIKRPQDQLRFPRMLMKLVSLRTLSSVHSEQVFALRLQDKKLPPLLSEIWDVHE
Procedure: as §1, §2

HepG2 liver cells = assay: Triglyceride assay in HepG2 cells; type: cell-based; settings: 24 h, 25 pM
Procedure: Methods: Cultures of the monocyte-macrophage cell line and the hepatocytes HepG2 are obtained from the American Type tissue Culture Collection, Rockville, Md. and were grown in RPMI 1640 medium supplemented with 10% fetal bovine serum, 10 mM HEPES, 2 mM pyruvate, 50 uM (3-Mercaptoethanol (THP-1) and Minimum essential medium (Eagle) with 2 mM L-glutamine and Earle's BSS supplemented with 10% fetal bovine serum, 2 mM glutamin, 0.1 mM non-essential amino acids, 1 mM sodium pyruvate (HepG2), respectively, at 37° C. in 5% CO2.
For cholesterol efflux measurements and triglyceride analysis cells are seeded in 6 well plates at 1.8×10^6 cells (THP-1) and 1×10^6 cells (HepG2) per well, respectively.
TRIGLYCERIDE ASSAY HepG2 cells are seeded in poly-L-Lysine coated 6 well plates at 1×10^6 cells per well in EMEM medium containing 10% FCS until they were appr. 60% confluent. Before treatment with LXR compounds growth medium is changed to medium containing 10% charcoal/dextran-stripped FCS for 12 h. Treatment is done for 24 h in medium containing 10% charcoal/dextran-stripped FCS. Cells are washed twice with ice-cold PBS/0.2% BSA and twice with cold PBS and all liquid carefully removed. Triglyceride are extracted with 1.5 ml hexane/isopropanol=3: 2 per well with gentle shaking for 2-3 h at RT according to Pan et al. (2002) JBC277, 4413-4421 and Goti et al. (1998) Biochem J, 332, 57-65. The extraction solution is collected, dried under vacuum and redissolved in isopropanol/1.5% triton. The remaining cellular proteins are lysed with 0.3 N NaOH and protein content measured with the Biorad Bradford reagent.
Triglyceride levels are measured as esterified glycerol using a commercial enzymatic colorimetric kit (Sigma 343-25P). In a preliminary assay it is checked by omitting the lipase enzyme that contribution of free glycerol is negligible.

human LXRalpha LBD = target: T3, human LXRalpha LBD (Homo sapiens, UniProt Q13133, A196R); assay: In vitro screening for LXR binding to coactivator Tif2 (LANCE TR-FRET); type: biochemical
T3 construct: from amino acids 155 of hLXRalpha to 447; made in house; host or cells: SF9 insect cells (baculovirus) for LXRalpha LBD; E. coli BL21 for Tif2 fragment
T3 sequence (Q13133 155-447 A196R): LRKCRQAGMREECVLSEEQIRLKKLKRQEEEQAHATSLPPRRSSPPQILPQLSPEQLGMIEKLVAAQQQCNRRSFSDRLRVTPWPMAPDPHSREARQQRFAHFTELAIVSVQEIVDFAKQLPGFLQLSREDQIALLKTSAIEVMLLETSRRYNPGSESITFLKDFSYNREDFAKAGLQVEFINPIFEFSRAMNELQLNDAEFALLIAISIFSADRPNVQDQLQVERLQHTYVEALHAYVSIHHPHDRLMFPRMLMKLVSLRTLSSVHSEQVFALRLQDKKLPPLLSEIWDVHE
T3 sequence (Q15596 548-878 partner limits assumed): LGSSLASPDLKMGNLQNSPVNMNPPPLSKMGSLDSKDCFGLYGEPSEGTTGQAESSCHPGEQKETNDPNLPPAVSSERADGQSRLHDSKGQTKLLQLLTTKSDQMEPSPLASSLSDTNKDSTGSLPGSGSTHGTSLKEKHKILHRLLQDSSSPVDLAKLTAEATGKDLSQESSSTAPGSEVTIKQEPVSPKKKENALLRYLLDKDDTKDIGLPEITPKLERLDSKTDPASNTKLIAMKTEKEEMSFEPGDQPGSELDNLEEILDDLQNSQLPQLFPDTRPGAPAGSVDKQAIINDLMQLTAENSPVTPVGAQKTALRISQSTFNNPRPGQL
From the text: For screening purposes a GST and 6× His fusion of the LBD (from amino acids 155 of hLXRalpha to 447) of human LXRalpha was constructed by first cloning a Gateway cassette (Invitrogen) in frame into the Sma I site of the pAGGHLT Polylinker (Pharmingen). Then a PCR fragment specifically amplified from human liver cDNA was cloned into the resulting pACGHLT-GW following the manufacturers instructions for Gateway cloning (Invitrogen) to yield pACGHLT-GW-hLXRalphaLBD.
100% sequence integrity of all recombinant products was verified by sequencing. Recombinant Baculovirus was constructed from pACGHLT-GW-hLXRalphaLBD using the Pharmingen Baculovirus Expression vector system according to instructions of the manufacturer. Monolayer cultures of SF9 cells were infected by the virus as recommended by Pharmingen or 200 ml cultures of 1×10^6 cells/ml grown in 2 liter Erlenmeyer flasks on an orbital shaker at 30 rpm were infected by 10 ml of same virus stock. In both cases cells were harvested 3 days after infection. All cell growth was performed in Gibco SF900 II with Glutamine (Invitrogen) medium without serum supplementation at 28° C. Since SF9 cells contain significant amounts of endogenous 30 GST, purification was performed via His and not via GST affinity chromatography.
To this end instructions of Pharmingen for purification of recombinant His tagged proteins from SF9 cells were followed with the following modifications: All detergents were omitted from the buffers and cells were lysed on ice by 5 subsequent sonication pulses using a sonicator needle at maximum power.
All eluates were dialyzed against 20 mM Tris/HCl pH 6.8, 300 mM KCl; 5 mM MgCl2;1 mM DTT; 0.2 mM PMSF; 10% Glycerol. A typical dialyzed eluate fraction contained the fusion protein at a purity of more than 80%. Total protein concentration was 0.1-0.3 mg/ml.
For E. coli expression of a NR coactivator, pDest17-hTif2BD expressing an NR interaction domain from amino acids 548-878 of human Tif2 (Acc. No: XM011633 Ref Seq) tagged by 6 N-terminal His residues was constructed. Therefore, a PCR fragment specifically amplified from human liver cDNA was subcloned into pDest 17 (Invitrogen) following the manufacturers instructions for Gateway cloning (Invitrogen). Primers used for Amplification were: […]
For E. coli expression plasmid DNA was transformed into chemically competent E. coli BL21 (Invitrogen, USA) and cells were grown to an OD600 of 0.4-0.7 before expression was induced by addition of 0.5 mM IPTG according instructions of the manufacturer (Invitrogen). After induction for 8 hours at 30° C. cells were harvested by centrifugation for 10 minutes at 5000×g. Fusion proteins were affinity purified using Ni—NTA Agarose (QIAGEN) according to the instructions of the manufacturer.
Recombinant Tif2 construct was dialyzed against 20 mM Tris/HCL pH 7.9; 60 mM KCl; 5 mM MgCl2; 1 mM DTT, 0.2 mM PMSF; 10% glycerol. A typical dialyzed eluate fraction contained the fusion protein at a purity of more than 80%. Total protein concentration was 0.1-0.3 mg/ml.
The TIF2 fragment was subsequently biotinylated by addition of 5-40 ul/ml Tif2 fraction of a Biotinamidocaproate N-Hydroxysuccinimide-ester (Sigma) solution (20 mg/ml in DMSO). Overhead rotating samples were incubated for 2 hours at room temperature. Unincorporated label was then separated using G25 Gel filtration chromatography (Pharmacia Biotech, Sweden). Protein containing fractions from the column were pooled and tested for activity in the assay as described below.
For screening of compound libraries as provided for by the methods shown below in the examples for substances which influence the LXR/Tif 2 interaction, the PerkinElmer LANCE technology is applied. This method relies on the binding dependent energy transfer from a donor to an acceptor fluorophore attached to the binding partners of interest. […]

- transactivation of the pFR-luc reporter gene via Gal4 LBD-fusion construct derived from LXRa (Gal4DBD-LXRa): can selectively enhance transcription
- transactivation of the pFR-luc reporter gene via Gal4 LBD-fusion construct derived from LXRb (Gal4DBD-LXRb): can selectively enhance transcription
SMILES: O=S(=O)(c1ccccc1)N(CC(F)(F)F)c1ccc(C(O)(C(F)(F)F)C(F)(F)F)cc1 [T0901317, reference compound]
- cholesterol export (THP-1 macrophages): marked increase
- triglyceride mass (HepG2 liver cells): marked increase

- pEC50 (human LXRalpha LBD; FRET assay, read-out: EC50 at LXR (half-maximal effective concentration)): 6.30
SMILES: C=CCn1c(N2CC3(C)CC2CC(C)(C)C3)nc2ccccc2c1=O (stereo not drawn) [formula (4)]

- active as agonist / partial agonist of the LXR human nuclear receptor (human LXRalpha LBD): active as agonist
SMILES: CC(C)n1c(N2CC3(C)CC2CC(C)(C)C3)nc2ccc(Br)cc2c1=O (stereo not drawn) [formula (6)]
